From article PMC9446148, “Hapten designs based on aldicarb for the development of a colloidal gold immunochromatographic quantitative test strip” (Frontiers in Nutrition, 2022)

Tested on: anti-aldicarb monoclonal antibody
Assay: icELISA cross-reaction test of the monoclonal antibody
Format: binding, mouse
Conditions: for Cross-reaction rate: IC50 of aldicarb relative to IC50 of inhibitor; for IC50: icELISA, inhibitor against anti-aldicarb monoclonal antibody
Description: A mouse monoclonal antibody subtype identification ELISA kit was used to identify the antibody subtype. Indirect competitive ELISA (icELISA) was used to determine the 50% inhibitory mass concentration (IC50) of the monoclonal antibody against aldicarb, and IC50 was used to measure the sensitivity of the monoclonal antibody ([28]). Cross-reaction tests were used to determine specificity, in which aldicarb sulfone, aldicarb sulfoxide, thiofanox, oxamyl, methomyl, metolcarb, isoprocarb, and carbofuran were selected as inhibitors. The IC50 of each inhibitor was determined by icELISA, and the IC50 of the monoclonal antibody against aldicarb and the IC50 of the inhibitor were taken as the cross-reaction rate.
Antibody specificity is the ability of the antibody to bind to a specific antigen in preference over antigen analogs. The cross-reactivity rate is often used as an evaluation standard because an inverse relationship exists between the cross-reactivity rate and the specificity of the antibody. In this study, we selected aldicarb sulfone, aldicarb sulfoxide, thiofanox, oxamyl, methomyl, metolcarb, isoprocarb, and carbofuran, with chemical structures similar to that of aldicarb, for the specificity analysis.

SMILES	Cross-reaction rate	IC50	other results
CNC(=O)O/N=C/C(C)(C)S(C)(=O)=O [Aldicarb sulfone]	<0.978%	>0.042 µg/mL	Cross-reaction rate (listed as aldicarb sulfone): < 1%
CNC(=O)O/N=C/C(C)(C)[S+](C)[O-] (stereo not shown) [Aldicarb sulfoxide]	<0.978%	>0.042 µg/mL	Cross-reaction rate (listed as aldicarb sulfoxide): < 1%
CNC(=O)O/N=C/C(C)(C)SC [Aldicarb, [(E)-(2-methyl-2-methylsulfanylpropylidene)amino]N-methylcarbamate]	100%		
CNC(=O)Oc1cccc2c1OC(C)(C)C2 [Carbofuran]	<0.978%	>0.042 µg/mL	Cross-reaction rate (listed as carbofuran): < 1%
CNC(=O)Oc1ccccc1C(C)C [Isoprocarb]	<0.978%	>0.042 µg/mL	Cross-reaction rate (listed as isoprocarb): < 1%
CNC(=O)ON=C(C)SC [Methomyl]	<0.978%	>0.042 µg/mL	Cross-reaction rate (listed as methomyl): < 1%
CNC(=O)Oc1cccc(C)c1 [Metolcarb]	<0.978%	>0.042 µg/mL	Cross-reaction rate (listed as metolcarb): < 1%
CNC(=O)O/N=C(\SC)C(=O)N(C)C [Oxamyl]	<0.978%	>0.042 µg/mL	Cross-reaction rate (listed as oxamyl): < 1%
CNC(=O)ON=C(CSC)C(C)(C)C [Thiofanox]	<0.978%	>0.042 µg/mL	Cross-reaction rate (listed as thiofanox): < 1%
